One data set has as its system BMEC. The conditions noted are these: BMEC treated with glucocorticoid; cited from earlier work.
Data set [1] is described as follows: Fluorescein flux through BMEC monolayer co-cultured with differentiating NPC (in vitro BBB model). The data set is classed as in vitro ADME, rat. To be noted: rat; through the in vitro model, BMEC with NPC co-culture, 1 μM apical; read-out: permeability (Pe) (converted). The text has this:
(§1) Many methods can be used to determine BBB permeability as well as uptake and efflux rates using an in vitro model. As an example, the rates for trans-BBB transport can be used to directly determine a pseudo steady-state permeability value (Pe) which is an estimate of in vivo permeability for a particular pharmaceutical compound, protein, or drug carrier. With the assumption that the concentration in the upper fluid compartment is static, and with a correction for the resistance provided by the membrane itself, the permeability can be readily determined for each test compound. Briefly, the transcytosis rate (Q) can be divided by the concentration of material added to the apical chamber (Ca) and the area of the membrane (Am) to yield a total permeability (Pt) that includes resistances due to the monolayer and the membrane (Pt=Q/[AmCa], or using clearance volume terminology Pt is equal to the slope of the clearance volume versus time line divided by the membrane area). Subsequently, Pe can be calculated by correcting for the resistance supplied by the cell free membrane (Pm) (1/Pe=1/Pt−1/Pm) (Bickel, U. How to measure drug transport across the blood-brain barrier. NeuroRx 2005, 2, 15-26.).
(§2) The permeability was assessed by determining the flux of fluorescein through the BMEC monolayer. Fluorescein sodium salt in DMEM was added to the apical filter compartment to produce a uniform initial concentration of 1 μM. Subsequently, 200 μl were removed from the basolateral compartment after 0, 15, 30, 45, and 60 min. The fluorescence was measured with the FLx800 fluorescence reader (Bio-Tek Instruments) and the rates of fluorescein accumulation in the lower compartment used to determine the permeability as described previously (Perriere et al. 2005).

Another data set has as its system BMEC monolayer. The data set is described as above. The data set is classed as in vitro ADME, rat.
From the text: as §1, §2

The next data set has as its system rat BMEC. The conditions noted are these: rat BMEC co-cultured with astrocytes; cited from earlier work.
For data set [2] the following is noted: cited from earlier work.

Where a name gives a salt, the structure may show the parent alone.

The text below walks through data of patent US8293495B2, “Blood-brain barrier model” (Wisconsin Alumni Research Foundation, priority 2006, dated 2012).

`C[C@]12C[C@H](O)[C@H]3[C@@H](CCC4=CC(=O)CC[C@@]43C)[C@@H]1CC[C@@H]2C(=O)CO` [corticosterone]: in the data set on BMEC, the TEER is 168 Ω×cm^2 and the frayed junctions is 21 % frayed.

On to `O=C1OC2(c3ccc(O)cc3Oc3cc(O)ccc32)c2ccccc21` [fluorescein, Fluorescein sodium salt], for which the Papp A→B at 60 min, 1 μM in data set [1] is 5.5 ×10⁻⁶ cm/s. In addition, the “reduction of monolayer permeability by NPC co-culture” value in the data set on BMEC monolayer (BMEC with differentiating NPC vs BMEC without NPC, 24 h co-culture) is given as 33%. The “permeability (Pe)” value in the data set on BMEC monolayer (through the in vitro model, BMEC with NPC co-culture, 1 μM apical) is 5.5 ×10⁻⁶ cm/s. Moreover, the fluorescein permeability with rat BMEC was 4.5 ×10⁻⁶ cm/s. In addition, the “crossing of the BBB in vivo” value in data set [2] is “does not appreciably cross the BBB”.

For `C[C@]12CCC(=O)C=C1CC[C@@H]1[C@@H]2[C@@H](O)C[C@@]2(C)[C@H]1CC[C@]2(O)C(=O)CO` [hydrocortisone], in the data set on BMEC, the TEER was 218 Ω×cm^2 and the frayed junctions is listed as 12 % frayed.
